Patent US7972829B2, “Process for producing transglutaminase” (Ajinomoto Co., Inc., priority 1999, dated 2011)
“Also recorded” adds a separate entry of the source. Like-named read-outs stand apart in the source and are kept apart here. *1 amine or outer side, *2 acyl side, *3 side chain or, on linkers, in order; H or OH if unused. Where a SMILES comes first, the peptide text is derived from it. Primed or numbered codes have the meaning given here. Where no end group is shown, it is not given here. [ ]: non-standard residue; d: D form. The star is where a group is joined. Sta = CC(C)C[C@H](N)[C@@H](O)CC(=O)O; pNA = O=[N+]([O-])c1ccc(N*)cc1; Suc = O=C(CCC(=O)[*:2])[*:1]; Isovaleryl = CC(C)CC(=O)*; code Z = not defined here; βNA = c1ccc2cc(N*)ccc2c1; Bz′ = not defined here; Cbz = O=C(OCc1ccccc1)*

What was measured:
[1] = test system: proline specific peptidase (svPEP); assay: Effects of inhibitors on the activity of proline specific peptidase (svPEP), Ala-Ala-Pro-pNA as substrate; format: biochemical, S. mobaraense IFO13819; settings: for inhibition of svPEP activity (in words): Ala-Ala-Pro-pNA as substrate
[2] = test system: proline specific peptidase (svPEP); assay: Substrate specificity of svPEP (cleaving activity on pNA-, βNA-conjugated peptides and peptides); format: biochemical, S. mobaraense IFO13819; settings: for relative activity (specificity of svPEP for peptide substrate): 20 mM sodium phosphate buffer pH 6.5, 37° C., 5 min, AAP-pNA = 100; for substrate recognition by svPEP (in words): cleavage at carboxyl terminal side of proline residue
[3] = Enzyme properties of svPEP (optimum pH, pH stability, optimum temperature, temperature stability); format: biochemical
Experimental: were used as a buffer, respectively. The enzyme was allowed to act on Ala-Ala-Pro-pNA as the substrate at 30° C. for 5 minutes. Relative activity of the enzyme in each buffer was calculated compared to the activity in 20 mM sodium phosphate buffer, pH6.5 as 100%. […] (iii) pH Stability
0.15 M GTA buffers (buffers composed of 3,3-dimethylglutaric acid, tris(hydroxymethyl)aminomethane, 2-amino-2-methyl-1,3-propanediol) ranging between pH 3 and pH10 were used. To 20 µl of purified enzyme solution, 40 μl of the buffer at each pH was added and the reaction mixtures were allowed to stand overnight at 4° C., then adjusted to pH 7.0 and the volume was made up to 120 μl. To 50 μl aliquots, Ala-Ala-Pro-pNA was added and the reaction was performed at 30° C. for 5 minutes. Relative amounts of substrate which the enzyme decomposed at each pH were considered to be the remaining activity compared to the activity of the enzyme as 100% when the enzyme was stored under the same condition as described above except for pH 7.0.
To 50 μl of purified enzyme solution, 0.5 ml of 20 mM sodium phosphate buffer (pH 6.5) was added and Ala-Ala-Pro-pNA was added up to 0.25 mM and the mixture was maintained at 20° C.-60° C. for 5 minutes to effect decomposition reaction. Relative amount of substrate which the enzyme decomposed was considered to be the relative activity at each temperature, compared to the amount of substrate decomposition at 25° C. as 100% activity.
To 50 μl of purified enzyme solution, 0.5 ml of 20 mM sodium phosphate buffer (pH 6.5) was added. The mixture was maintained at 4° C. or 20° C.-60° C. for 15 minutes and then cooled on ice. Ala-Ala-Pro-pNA was added up to 0.25 mM and the mixture was maintained at 30° C. for 5 minutes. The remaining activity was calculated assuming the activity of the enzyme which was treated at 4° C. to be 100%.

[4] = Isoelectric point of svPEP; format: physicochemical
[5] = Transglutaminase activity by hydroxamate method; format: biochemical
[6] = compound 10 mM, 10 min room temperature, then Ala-Ala-Pro-pNA, 30° C., 5 min, activity without compound = 100%
[7] = compound 1 mM, 10 min room temperature, then Ala-Ala-Pro-pNA, 30° C., 5 min, activity without compound = 100%

O[C@H](CS)[C@H](O)CS (racemic) [Dithiothreitol]
relative activity [1, 6]: 102.5%

c1cnc2c(c1)ccc1cccnc12 [1,10-Phenanthroline]
relative activity [1, 7]: 92.5%

CC(C)C[C@H](NC(=O)[C@@H](O)[C@H](N)Cc1ccccc1)C(=O)O [Bestatin]
relative activity [1, 7]: 97.6%

CC(C)C[C@H](NC(=O)[C@@H](NC(=O)N[C@@H](Cc1ccccc1)C(=O)O)[C@@H]1CCN=C(N)N1)C(=O)N[C@H](C=O)Cc1ccccc1 [Chymostatin]
relative activity [1]: 84.9%

O=C(O)CN(CCN(CC(=O)O)CC(=O)O)CC(=O)O [EDTA]
relative activity [1, 6]: 105.2%

NC(=O)CI [Iodoacetamide]
relative activity [1]: 87%

CCN1C(=O)C=CC1=O [N-Ethylmaleimide]
relative activity [1, 7]: 98.3%

CC(C)CC(=O)N[C@H](C(=O)N[C@H](C(=O)N[C@@H](CC(C)C)[C@@H](O)CC(=O)N[C@@H](C)C(=O)N[C@@H](CC(C)C)[C@@H](O)CC(=O)O)C(C)C)C(C)C [Pepstatin] (Isovaleryl-VV[Sta]A[Sta]-OH)
relative activity [1, 7]: 165.7%

O=S(=O)(F)Cc1ccccc1 [Phenylmethylsulfonylfluoride]
inhibition of svPEP activity (in words) ([1]; listed as phenyl methylsulfonylfluoride): comparatively strong inhibition | inhibition of svPEP activity (in words) ([1]; listed as phenylmethylsulfonyl fluoride): inhibited | relative activity [1, 7]: 39.7%

O=C[C@@H]1CCCN1C(=O)[C@@H]1CCCN1C(=O)OCc1ccccc1 [Z-(S)Pro-(S)Prolinal] (Cbz-Pro-Pro-aldehyde)
relative activity [1, 7]: 111.2%

O=C[C@@H]1CCCN1C(=O)[C@@H]1CCCN1C(=O)OCc1ccccc1 [Z-Pro-(S)Prolinal] (Cbz-Pro-Pro-aldehyde)
relative activity [1, 7]: 105.8%

O=C[C@@H]1CCCN1C(=O)[C@@H]1CCCN1C(=O)OCc1ccccc1 [Z-Pro-Prolinal] (Cbz-Pro-Pro-aldehyde)
relative activity [1, 7]: 99.7%

O=C(O)c1cc[c]([Hg][Cl])cc1 [p-Chloromercuribenzoic acid]
inhibition of svPEP activity (in words) [1]: inhibited to some extent | relative activity [1, 7]: 87.1%

AAA-pNA
relative activity (specificity of svPEP for peptide substrate) [2]: 8.5%

AAF-pNA (Ala-Ala-Phe-pNA) [p-nitroanilide peptide substrate for svPEP]
relative activity (specificity of svPEP for peptide substrate) [2]: 4.1%

AAPL-pNA [p-nitroanilide peptide substrate for svPEP]
relative activity (specificity of svPEP for peptide substrate) [2]: 0.3%

Ala-Ala-Pro-pNA [AAP-pNA, p-nitroanilide peptide substrate for svPEP]
relative activity (specificity of svPEP for peptide substrate) [2]: 100% | substrate recognition by svPEP (in words) [2]: preferably recognized

Ala-Phe-Pro-pNA [AFP-pNA, p-nitroanilide peptide substrate for svPEP]
relative activity (specificity of svPEP for peptide substrate) [2]: 26.3% | substrate recognition by svPEP (in words) [2]: preferably recognized

Aminoethylbenzenesulfonylfluoride hydrochloride
inhibition of svPEP activity (in words) ([1]; hydrochloride): comparatively strong inhibition; also recorded: inhibited | relative activity ([1]; compound 4 mM, 10 min room temperature, then Ala-Ala-Pro-pNA, 30° C., 5 min, activity without compound = 100%): 59.9%

Bz-Phe-Val-Arg-pNA ({Bz′}-Phe-Val-Arg-pNA) [Bz-FVR-pNA, p-nitroanilide peptide substrate]
relative activity (specificity of svPEP for peptide substrate) [2]: 0.002%

PSFRAP-pNA [p-nitroanilide peptide substrate for svPEP]
relative activity (specificity of svPEP for peptide substrate) [2]: 0.2%

Phe-Arg-Ala-Pro-pNA (FRAP-pNA)
relative activity (specificity of svPEP for peptide substrate) [2]: 49.0% | substrate recognition by svPEP (in words) [2]: preferably recognized

SFRAP-pNA [p-nitroanilide peptide substrate for svPEP]
relative activity (specificity of svPEP for peptide substrate) [2]: 1.23%

Suc-AAPF-pNA [p-nitroanilide peptide substrate for svPEP]
relative activity (specificity of svPEP for peptide substrate) [2]: 0.01%

Z-AGP-βNA ({code Z}-Ala-Gly-Pro-βNA; reading uncertain; also: printed as Z-AGP-βNA) [β-naphtylamido peptide substrate for svPEP]
relative activity (specificity of svPEP for peptide substrate) [2]: 0.78%

Z-GAP-βNA ({code Z}-Gly-Ala-Pro-βNA; reading uncertain; also: printed as Z-GAP-βNA) [β-naphtylamido peptide substrate for svPEP]
relative activity (specificity of svPEP for peptide substrate) [2]: 1.2%

p-pNA
relative activity (specificity of svPEP for peptide substrate) [2]: 0.04%

B1: svPEP: proline-specific peptidase produced by S. mobaraense IFO13819; mature sequence SEQ ID NO:40 (protein)
chain: QADIKDRILKIPGMKFVEEKPYQGYRYLVMTYRQPVDHRNPGKGTFEQRFTLLHKDTDRPTVFFTSGYNVSTNPSRSEPTRIVDGNQVSMEYRFFTPSRPQPADWSKLDIWQAASDQHRLYQALKPVYGKNWLATGGSKGGMTATYFRRFYPNDMNGTVAYVAPNDVNDKEDSAYDKFFQNVGDKACRTQLNSVQREALVRRDEIVARYEKWAKENGKTFKVVGSADKAYENVVLDLVWSFWQYHLQSDCASVPATKASTDELYKFIDDISGFDGYTDQGLERFTPYYYQAGTQLGAPTVKNPHLKGVLRYPGINQPRSYVPRDIPMTFRPGAMADVDRWVREDSRNMLFVYGQNDPWSGEPFRLGKGAAARHDYRFYAPGGNHGSNIAQLVADERAKATAEVLKWAGVAPQAVQKDEKAAKPLAPFDAKLDRVKNDKQSALRP
modifications: Streptoverticillium mobaraense
optimum pH ([3]; Ala-Ala-Pro-pNA, 30° C., 5 min): 6.0-6.5 | pH stability (stable at pH) ([3]; overnight at 4° C. in 0.15 M GTA buffers pH 3 to 10): 4-9 | optimum temperature ([3]; pH 6.5, 20° C.-60° C., 5 min): 25-30 °C | temperature stability (stable below) ([3]; pH 6.5, 15 min at 4° C. or 20° C.-60° C.): below 20 °C | isoelectric point [4]: 10.2

B2: transglutaminase: S. mobaraense transglutaminase secreto-produced as pro-form in C. glutamicum ATCC13869, pro-structure part cleaved by protease (protein)
chain: DSDDRVTPPAEPLDRMPDPYRPSYGRAETVVNNYIRKWQQVYSHRDGRKQQMTEEQREWLSYGCVGVTWVNSGQYPTNRLAFASFDEDRFKNELKNGRPRSGETRAEFEGRVAKESFDEEKGFQRAREVASVMNRALENAHDESAYLDNLKKELANGNDALRNEDARSPFYSALRNTPSFKERNGGNHDPSRMKAVIYSKHFWSGQDRSSSADKRKYGDPDAFRPAPGTGLVDMSRDRNIPRSPTSPGEGFVNFDYGWFGAQTEADADKTVWTHGNHYHAPNGSLGAMHVYESKFRNWSEGYSDFDRGAYVITFIPKSWNTAPDKVKQGWP
modifications: Streptoverticillium mobaraense
notes: S. mobaraense transglutaminase secreto-produced as pro-form in C. glutamicum ATCC13869, pro-structure part cleaved by protease
specific activity ([5]; after Dispase digestion (37° C., pH 7.5, 1 hour) of culture supernatant of C. glutamicum ATCC13869 harboring pVKPTG1-4 or pPKPTG1-4): about 20 U/mg | specific activity ([5]; after Dispase digestion (37° C., pH 7.5, 1 hour) of culture supernatant of C. glutamicum harboring pVKSPTG1, pVTSPTG1, pPKSPTG1 or pPTSPTG1): about 20 U/mg | specific activity ([5]; culture supernatant of C. glutamicum harboring pVSS1 (SAMP45) and pPKSPTG1, Phe-Arg-Ala-Pro added at N-terminal): about 20 U/mg | specific activity ([5]; culture supernatant of C. glutamicum harboring pVSS1 and pPKSPTG11 or pPKSPTG12): about 20 U/mg | specific activity ([5]; culture supernatant of C. glutamicum harboring pVSSSP1 (SAMP45 and svPEP) and pPKSPTG1): about 20 U/mg | specific activity ([5]; pro-structure cleaved with culture medium of S. mobaraense IFO13819, 30° C., 6 hours): about 20 U/mg | specific activity ([5]; pro-structure cleaved with washed cells of S. mobaraense, 30° C., 6 hours): about 20 U/mg
